Values joined by “and” are separate entries in the source; they are usually repeats but may differ in a detail not shown here. Equal values may be shown once.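 Assay format: 96-well plates, 48-hour exposure. Abbreviation: GI50, concentration required for 50% inhibition of growth. TGI denotes the concentration required for complete inhibition of growth.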
What was measured:
Assay in all cases: inhibition of tumour cell growth, NCI panel, 48 h
[1] = tested on: HT29 colon
[2] = tested on: DU-145 prostate
[3] = tested on: HS 578T breast
[4] = tested on: A549 NSCLC
[5] = tested on: OVCAR-5 ovarian
[6] = tested on: NCI-H522 lung
[7] = tested on: OVCAR-3 ovarian
[8] = tested on: HL-60(TB) leukemia
[9] = tested on: KM12 colon
[10] = tested on: RPMI-8226 leukemia

| Compound | GI50 [1] | TGI [1] | GI50 [2] | TGI [2] | GI50 [3] | TGI [3] | GI50 [4] | TGI [4] | GI50 [5] | TGI [5] | GI50 [6] | TGI [6] | GI50 [7] | TGI [7] | GI50 [8] | TGI [8] | GI50 [9] | TGI [9] | GI50 [10] | TGI [10] |
| --- | --- | --- | --- | --- | --- | --- | --- | --- | --- | --- | --- | --- | --- | --- | --- | --- | --- | --- | --- | --- |
| O=Nc1c(O)c2ccccc2c2ccccc12 | 2.83 µM | 7.88 µM | 0.961 µM | 2.23 µM | 2 µM | 5.65 µM | 1.63 µM | 3.13 µM | 1.94 µM | 4.53 µM | 1.26 µM | 3.58 µM | 0.754 µM | 2.45 µM | 2.47 µM | 7.97 µM | 1.76 µM | 3.34 µM | 1.2 µM | > 21.9 µM |
| NC(CO)C(=O)NCC(=O)O (stereo not given) | – | > 100 µM | – | > 100 µM | – | > 100 µM | – | > 100 µM | – | > 100 µM | – | > 100 µM | – | > 100 µM | – | > 100 µM | – | > 100 µM | – | > 100 µM |
| CCN(Cc1cccc(F)c1F)c1ccc(CO)c(Cl)c1 | 3.83 µM | 19 µM | 18.8 µM | 55.6 µM | 17.9 µM | 48.7 µM | 1.54 µM | 24.2 µM | 0.058 µM | 0.228 µM | 14.1 µM | 31.2 µM | 0.304 µM | 1.28 µM | 7.25 µM | 41.2 µM | 15.8 µM | 31.6 µM | 2.32 µM | 39.7 µM |
| NCCN1C(=O)c2ccccc2C1(O)c1ccc(Cl)cc1 (stereo not given) | – | 39.8 µM | – | > 100 µM | – | 33.1 µM | – | 67.3 µM | – | 39.8 µM | – | 27.9 µM | – | > 100 µM | – | 70.8 µM | – | 30.5 µM | – | 39.7 µM |
| CC1(C)CC(=O)c2c(ccc(C(=O)C[C@@H](N)CO)c2N)O1 | 0.34 µM | > 91.1 µM | 0.849 µM | > 93.1 µM | 20.6 µM | > 100 µM | 1.42 µM | > 100 µM | 22.8 µM | > 100 µM | 0.919 µM | 15.3 µM | 0.431 µM | > 38.2 µM | 4.03 µM | > 63.7 µM | 0.297 µM | > 91.7 µM | 1.56 µM | 21.4 µM |
| CC(=O)/C(=C\c1c(-c2ccccc2)[nH]c2ccccc12)S(=O)(=O)c1ccccc1 | 0.576 µM | 2.32 µM | 2.94 µM | 9.31 µM | 3.81 µM | > 93.8 µM | 6.73 µM | 41.9 µM | 2.01 µM | 5.46 µM | 1.17 µM | 4.35 µM | 1.54 µM | 4.52 µM | 1.69 µM | 5.28 µM | 1.01 µM | 2.65 µM | 2.23 µM | 7.14 µM |
| C#C/C=C/CC1OC(C(Br)CC)CC(Br)C2CC1O2 (stereo not given) | – | > 100 µM | – | > 100 µM | – | > 100 µM | – | > 100 µM | – | > 100 µM | – | 21.1 µM | – | > 100 µM | – | > 100 µM | – | > 100 µM | – | > 100 µM |
| Oc1c(CNCCNCc2cc(Cl)cc(Cc3ccccc3)c2O)cc(Cl)cc1Cc1ccccc1 | 0.668 µM | 20 µM | 0.303 µM | 57.1 µM | 3.91 µM | 59.3 µM | 0.469 µM | > 100 µM | 1.2 µM | > 100 µM | 0.546 µM | 25.6 µM | 0.428 µM | 31.1 µM | 0.43 µM | 9.84 µM | 0.34 µM | 15.2 µM | 0.695 µM | 6.39 µM |
| O=S(=O)(NCCO)c1cc[c]([Sb](=[O])([OH])[OH])cc1 | > 100 µM | > 100 µM | > 100 µM | > 100 µM | > 100 µM | > 100 µM | > 100 µM | > 100 µM | > 100 µM | > 100 µM | > 100 µM | > 100 µM | > 100 µM | > 100 µM | > 100 µM | > 100 µM | > 100 µM | > 100 µM | > 100 µM | > 100 µM |
| CNCCCn1c2c(c3ccc(F)cc3c1=O)C(=O)c1cc(OC)cnc1-2 | 0.145 µM | 0.624 µM | 0.202 µM | 1.12 µM | 2.24 µM | 16.2 µM | 0.105 µM | 0.288 µM | 0.352 µM | 1.87 µM | 0.0569 µM | 1.08 µM | 0.263 µM | 1.39 µM | 0.221 µM | 0.753 µM | 0.242 µM | 1.48 µM | 0.203 µM | 0.912 µM |
| O=C(c1ccccc1O)c1[nH]c(Cl)c(Cl)c1-n1c(C(=O)c2ccccc2O)cc(Cl)c1Cl | 2 µM | 12.8 µM | 2.25 µM and 1.81 µM | 16.3 µM and 16.6 µM | 0.849 µM and 0.623 µM | 10.9 µM and 9.66 µM | 2.69 µM and 1.8 µM | 10.9 µM and 14.6 µM | 2.54 µM and 2.73 µM | 9.87 µM and 14.6 µM | 0.317 µM and 0.363 µM | 1.4 µM and 7.68 µM | 1.03 µM and 0.704 µM | 13.1 µM and 13.4 µM | 1.19 µM and 0.432 µM | 5.48 µM and 3.58 µM | 1.92 µM and 0.75 µM | 12.1 µM and 11.9 µM | 0.366 µM and 0.265 µM | 4.21 µM and 1.57 µM |

From PubChem BioAssay (NCI)
